# PubChem BioAssay (NCI)
#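 Where inhibition never reached the appropriate level, the endpoint shown equals the highest concentration tested. Otherwise, values were interpolated linearly from a five-concentration, 48-hour dose response in 96-well plates. GI50 is the concentration that inhibits growth by half. The concentration for full growth arrest is given as TGI.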
# Legend:
# Assay in all cases: growth of human tumour cells (NCI), 48 h
# [1] = system: 786-0 renal
# [2] = system: A498 renal
# [3] = system: A549 NSCLC
# [4] = system: ACHN renal
# [5] = system: BT-549 breast
# [6] = system: CAKI-1 renal
# [7] = system: CCRF-CEM leukemia
# [8] = system: COLO 205 colon
# [9] = system: DU-145 prostate
# [10] = system: EKVX NSCLC
# [11] = system: HCC-2998 colon
# [12] = system: HCT-116 colon
# [13] = system: HCT-15 colon
# [14] = system: HL-60(TB) leukemia
# [15] = system: HOP-62 NSCLC
# [16] = system: HOP-92 NSCLC
# [17] = system: HS 578T breast
# [18] = system: HT29 colon
# [19] = system: IGROV1 ovarian
# [20] = system: K-562 leukemia
# [21] = system: KM12 colon
# [22] = system: LOX IMVI melanoma
# [23] = system: M14 melanoma
# [24] = system: MALME-3M melanoma
# [25] = system: MCF7 breast
# [26] = system: MDA-MB-231 breast
# [27] = system: MDA-MB-435
# [28] = system: MOLT-4 leukemia
# [29] = system: NCI-H226 lung
# [30] = system: NCI-H23 lung
# [31] = system: NCI-H460 lung
# [32] = system: NCI-H522 lung
# [33] = system: NCI/ADR-RES ovarian
# [34] = system: OVCAR-3 ovarian
# [35] = system: OVCAR-4 ovarian
# [36] = system: OVCAR-5 ovarian
# [37] = system: OVCAR-8 ovarian
# [38] = system: PC-3 prostate
# [39] = system: RPMI-8226 leukemia
# [40] = system: RXF 393 renal
# [41] = system: SF-268 CNS
# [42] = system: SF-295 CNS
# [43] = system: SF-539 CNS
# [44] = system: SK-MEL-2 melanoma
# [45] = system: SK-MEL-28 melanoma
# [46] = system: SK-MEL-5 melanoma
# [47] = system: SK-OV-3 ovarian
# [48] = system: SN12C renal
# [49] = system: SNB-19 CNS
# [50] = system: SNB-75 CNS
# [51] = system: SR leukemia
# [52] = system: SW-620 colon
# [53] = system: T-47D breast
# [54] = system: TK-10 renal
# [55] = system: U251 CNS
# [56] = system: UACC-257 melanoma
# [57] = system: UACC-62 melanoma
# [58] = system: UO-31 renal
structure (smiles),measurement,setting,value
O=C(CCl)Nc1ccc2c(c1)C(=O)c1ccccc1C2=O,GI50,[1],1670 nM
same,TGI,[1],3.56 µM
same,GI50,[2],12.2 µM
same,TGI,[2],25.8 µM
same,GI50,[3],8.51 µM
same,TGI,[3],23.5 µM
same,GI50,[4],1710 nM
same,TGI,[4],3.17 µM
same,GI50,[5],1460 nM
same,TGI,[5],3.58 µM
same,GI50,[6],1590 nM
same,TGI,[6],2960 nM
same,GI50,[7],676 nM
same,TGI,[7],> 100 µM
same,GI50,[8],1480 nM
same,TGI,[8],3.33 µM
same,GI50,[9],1800 nM
same,TGI,[9],3.36 µM
same,GI50,[10],2200 nM
same,TGI,[10],6.35 µM
same,GI50,[11],1860 nM
same,TGI,[11],3.65 µM
same,GI50,[12],790 nM
same,TGI,[12],2970 nM
same,GI50,[13],730 nM
same,TGI,[13],2440 nM
same,GI50,[14],2410 nM
same,TGI,[14],5.33 µM
same,GI50,[15],2980 nM
same,TGI,[15],8.5 µM
same,GI50,[16],3.72 µM
same,TGI,[16],9.73 µM
same,GI50,[17],3.56 µM
same,TGI,[17],20.1 µM
same,GI50,[18],1660 nM
same,TGI,[18],3.8 µM
same,GI50,[19],990 nM
same,TGI,[19],3.23 µM
same,GI50,[20],1030 nM
same,TGI,[20],> 100 µM
same,GI50,[21],3.03 µM
same,TGI,[21],9.34 µM
same,GI50,[22],390 nM
same,TGI,[22],994 nM
same,GI50,[23],1310 nM
same,TGI,[23],2980 nM
same,GI50,[24],1390 nM
same,TGI,[24],3.11 µM
same,GI50,[25],1630 nM
same,TGI,[25],3.64 µM
same,GI50,[26],1650 nM
same,TGI,[26],4.64 µM
same,GI50,[27],2050 nM
same,TGI,[27],5.46 µM
same,GI50,[28],2240 nM
same,TGI,[28],> 100 µM
same,GI50,[29],2390 nM
same,TGI,[29],6.76 µM
same,GI50,[30],1700 nM
same,TGI,[30],4.15 µM
same,GI50,[31],2130 nM
same,TGI,[31],5.61 µM
same,GI50,[32],533 nM
same,TGI,[32],1220 nM
same,GI50,[33],2160 nM
same,TGI,[33],6.56 µM
same,GI50,[34],1720 nM
same,TGI,[34],3.27 µM
same,GI50,[35],3.48 µM
same,TGI,[35],11.3 µM
same,GI50,[36],2500 nM
same,TGI,[36],6.89 µM
same,GI50,[37],2350 nM
same,TGI,[37],6.35 µM
same,GI50,[38],2770 nM
same,TGI,[38],11.6 µM
same,GI50,[39],2040 nM
same,TGI,[39],5.62 µM
same,GI50,[40],2000 nM
same,TGI,[40],3.78 µM
same,GI50,[41],1790 nM
same,TGI,[41],4.59 µM
same,GI50,[42],2420 nM
same,TGI,[42],10.5 µM
same,GI50,[43],2440 nM
same,TGI,[43],6.49 µM
same,GI50,[44],1580 nM
same,TGI,[44],3.85 µM
same,GI50,[45],3.8 µM
same,TGI,[45],9.98 µM
same,GI50,[46],1160 nM
same,TGI,[46],2420 nM
same,GI50,[47],3.71 µM
same,TGI,[47],17 µM
same,GI50,[48],1410 nM
same,TGI,[48],3.01 µM
same,GI50,[49],2940 nM
same,TGI,[49],11.5 µM
same,GI50,[50],2190 nM
same,TGI,[50],8.44 µM
same,GI50,[51],56.7 nM
same,TGI,[51],> 100 µM
same,GI50,[52],1430 nM
same,TGI,[52],2920 nM
same,GI50,[53],1110 nM
same,TGI,[53],2870 nM
same,GI50,[54],1870 nM
same,TGI,[54],3.72 µM
same,GI50,[55],1860 nM
same,TGI,[55],4.11 µM
same,GI50,[56],5.59 µM
same,TGI,[56],13.9 µM
same,GI50,[57],1510 nM
same,TGI,[57],3.17 µM
same,GI50,[58],1730 nM
same,TGI,[58],3.47 µM
